The results in this text go back to patent US10309967B2, “Methods of diagnosing bipolar disorders and screening for therapeutic compounds” (National University Corporation Chiba University, priority 2015, dated 2019).

The test system of experiment [1] is Idh3a. The experiment in a line: Quantitative PCR of Idh3a mRNA in rat prefrontal cortex and hippocampus after Li or VPA. The note with it: normalized to Gapdh; for Idh3a gene expression: relative to control, mean ± SD; for mRNA levels of Idh3a: rat prefrontal cortex and hippocampus, chronic (4-weeks) treatment, vs control. The experiment is classed as in vivo. As for the experimental part: (§1) Real-time quantitative RT-PCR analysis was conducted using an ABI7900HT Fast Real-Time PCR System (Applied Biosystems, Foster City, Calif.) in both human and rat samples. TaqMan probes and primers for the seven genes (ACO1, ACO2, IDH1, IDH2, IDH3A, IDH3B, IDH3G) and GAPDH (an internal control) (Table 11) were TAQMAN® Gene Expression Assays products (Applied Biosystems).
(§2) The CSF concentrations of 116 major metabolites from several pathways were measured. […] Male Sprague-Dawley rats (Japan SLC Inc., Shizuoka, Japan) aged 6 weeks old were used in this study. All rats were housed in groups of three per cage in a room maintained at 23° C.±2° C. and 60±10% humidity with a 12/12 hour light/dark cycle (lights on at 7:00 a.m.). The rats were given free access to food and water. Animal care and use were conducted in accordance with the Institutional Guidelines for Animal Care and Use of Otsuka Pharmaceutical Co., Ltd. (Tokushima, Japan). […] The drinking water was replaced twice a week. […] All animals were decapitated on day 30 after CSF sampling, and brain regions (prefrontal cortex, and hippocampus) were dissected rapidly on ice. Metabolomic analyses of rat CSF samples were performed as described herein.
(§3) Prefrontal cortex, and hippocampus were dissected rapidly on ice and stored in RNA later (Applied Biosystems) at 4° C. until used for RNA isolation, cDNA synthesis and polymerase chain reaction (PCR) amplification. The total RNA was extracted using the RNeasy Lipid Tissue Mini Kit (QIAGEN) following the instructions of manufacturer. RNA yield and integrity was assessed using Nanodrop (NanoDrop Technologies). Reverse transcription of total RNA was done using the […] VILO cDNA Synthesis Kit (Invitrogen). In the quantitative PCR, the cDNA was amplified using commercial TaqMan assays (Applied Biosystems) for rat Idh3A (Rn00586270_m1), Idh3B (Rn00504589_g1), Aco1 (Rn00569045_m1), Aco2 (Rn00577876_m1) and Gapdh (Rn01775763_g1) with an ABI 7500 Fast Real-Time PCR system (Applied Biosystems). (Table 17) Reactions were performed in triplicates. All reactions were normalized to Gapdh and presented as relative expression changes compared to control.

For experiment [2], the system named is Aco2. The experiment in a line: Quantitative PCR of Aco2 mRNA in rat prefrontal cortex and hippocampus after Li or VPA. The experiment is classed as in vivo. Particulars: normalized to Gapdh; for Aco2 gene expression: relative to control, mean ± SD; for mRNA levels of Aco2: rat prefrontal cortex and hippocampus, chronic (4-weeks) treatment, vs control. As for the experimental part: as §1, §2, §3

Each structure is given as a SMILES string. Entries after “also recorded” stand apart in the source; their conditions may differ.

As to `O=C([O-])[O-].[Li+].[Li+]` [Li, lithium carbonate], the Idh3a gene expression in experiment [1] (rat hippocampus) stood at 1.2250 ± 0.2326; in experiment [1] (rat prefrontal cortex), 1.3420 ± 0.5725. Further, in experiment [1], the “mRNA levels of Idh3a” value is “did not alter; also recorded: not altered”. In addition, the Aco2 gene expression in experiment [2] (rat hippocampus) is 1.1340 ± 0.1248; in experiment [2] (rat prefrontal cortex), 0.9921 ± 0.1576. In addition, the “mRNA levels of Aco2” value in experiment [2] is “did not alter; also recorded: not altered”.
Regarding `CCCC(CCC)C(=O)[O-].[Na+]` [VPA, valproic acid sodium salt], the “mRNA levels of Idh3a” value in experiment [1] (sodium salt) is recorded as “did not alter; also recorded: not altered”. In experiment [1] (rat prefrontal cortex), the Idh3a gene expression was determined as 1.2546 ± 0.3578. The Aco2 gene expression in experiment [2] (rat hippocampus) worked out at 1.0358 ± 0.0499; in experiment [2] (rat prefrontal cortex), 0.9505 ± 0.1596. Besides, the “mRNA levels of Aco2” value in experiment [2] (sodium salt) is listed as “did not alter; also recorded: not altered”.
